Data as given in PMC6691587, “New CXCR1/CXCR2 inhibitors represent an effective treatment for kidney or head and neck cancers sensitive or refractory to reference treatments” (Theranostics, 2019).
pIC50: −log10 of the molar value. Where “and” joins values, the source holds several entries; their conditions need not be identical. Equal entries are not always repeated. Where two headings read alike, the source gives them in different places.

Columns and labels:
Molm13 = test: XTT cell viability assay, Molm13 AML cells; type: cell-based, human; settings: Homo sapiens, MOLM-13, 48 h, SD 10%, mean of three experiments
Method in brief: (§1)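 Read-out: formazan absorbance at 490 nm after XTT addition, proportional to metabolically active (viable, proliferating) cells. Run in quadruplicate.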

RCC4 = test: XTT cell viability assay, RCC4 RCC cells; type: cell-based, human; settings: Homo sapiens, RCC4, 48 h, SD 10%, mean of three experiments, read-out: IC50 R4 (Kidney RCC)
Method in brief: as §1

OCI-AML2 = test: XTT cell viability assay, OCI-AML2 AML cells; type: cell-based, human; settings: Homo sapiens, OCI-AML2, 48 h, SD 10%, mean of three experiments, read-out: IC50 L2 (AML)
Method in brief: as §1

CXCR1 = molecular target: T1, CXCR1 (Homo sapiens, UniProt P25024); test: Membrane-associated CXCR1 level in HuVEC by flow cytometry; type: cell-based; settings: CXCL7 25 ng/ml 1 h, C29 2.5 µmol/L
T1 construct: CXCR1/2 are expressed on endothelial cells and participate in ELR^+CXCL-mediated angiogenesis; endogenous in cells; host or cells: HuVEC
T1 sequence (P25024 whole entry): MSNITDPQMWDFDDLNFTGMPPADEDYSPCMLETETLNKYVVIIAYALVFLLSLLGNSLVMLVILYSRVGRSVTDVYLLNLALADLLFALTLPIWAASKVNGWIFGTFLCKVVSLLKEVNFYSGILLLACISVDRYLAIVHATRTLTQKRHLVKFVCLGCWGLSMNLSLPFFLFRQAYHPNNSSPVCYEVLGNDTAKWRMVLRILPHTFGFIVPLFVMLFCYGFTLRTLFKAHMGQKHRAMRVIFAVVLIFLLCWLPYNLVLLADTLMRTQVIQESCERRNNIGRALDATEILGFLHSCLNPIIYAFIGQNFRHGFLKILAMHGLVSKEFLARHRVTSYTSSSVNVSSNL

[1] = system: ERK/MAP Kinase signaling pathway; test: p-ERK immunoblotting in HuVEC; type: cell-based, human; settings: 5 µM C29 1 h, CXCL5 50 ng/ml 10 min
Method: Cells were lysed in buffer containing 3% SDS, 10% glycerol and 0.825 mM Na2HPO4. 30 to 50 μg of proteins separated on 10% SDS-PAGE, transferred onto a PVDF membrane and then exposed to the appropriate antibodies. Proteins were visualized with the ECL system using horseradish peroxidase-conjugated anti-rabbit or anti-mouse antibodies.

[2] = Pharmacokinetic parameters after oral administration; type: in vivo; settings: plasma, CD-1 mice, oral gavage 50 mg/kg
Method: The in vivo pharmacokinetic parameters were determined in CD-1 mice at a dose of 50 mg/kg after oral administration. The plasma samples (400 µL) were mixed with acetonitrile (1 mL) to precipitate the proteins and extract the compound. After mixing and sonication, proteins were precipitated by centrifugation and the supernatants were analyzed by UPLCMS/MS.

CAL33 [3] = test: Ectopic model of HNSCC (CAL33 xenograft); type: in vivo, nude (nu/nu) female mice
Method: One microgram of total RNA was used for the reverse transcription, using the QuantiTect Reverse Transcription kit (QIAGEN, Hilden, Germany), with blend of oligo (dT) and random primers to prime first-strand synthesis. SYBR master mix plus (Eurogentec) was used for qPCR. The mRNA level was normalized to 36B4 mRNA. The sequences of oligo nucleotides used in our experiments are describe in Table S1.
(§2) These studies were carried out in strict accordance with the recommendations in the Guide for the Care and Use of Laboratory Animals. Our experiments were approved by the ''Comité National Institutionnel d'Ethique pour l'Animal de Laboratoire'' (reference: PEA-255 and PEA-277). Cells were injected subcutaneously into the flank of 5-week-old nude (nu/nu) female mice (Janvier). When the tumor reached 100 mm^3, mice were treated. The tumor volume was determined with a caliper (v = L*l2*0.5).
One million CAL33 were injected subcutaneously.
Sections of formol-fixed and paraffin-embedded tumors were incubated with monoclonal anti-Ki67 (clone MIB1, DAKO) or anti-CD31 (clone MEC 13.3, BD Pharmingen) antibodies. A biotinylated secondary antibody (DAKO) was applied and binding was detected with the substrate diaminobenzidine against a hematoxylin counterstain.

786-O cells = test: Ectopic model of RCC (786-O xenograft); type: in vivo, nude (nu/nu) female mice; settings: C29 100 µg i.p. three per week; danirixin 200 µg three times a week; sunitinib 50 mg/kg oral gavage five times a week
Method: as §2
2- Seven million 786-O cells were injected subcutaneously.

CAL27 = test: XTT cell viability assay, CAL27 HNSCC cells; type: cell-based, human; settings: for pIC50: Homo sapiens, CAL-27
Method in brief: as §1

CXCR2 = molecular target: T2, CXCR2 (Homo sapiens, UniProt P25025); test: Membrane-associated CXCR2 level in HuVEC by flow cytometry; type: cell-based; settings: CXCL8 25 ng/ml 1 h, C29 2.5 µmol/L
T2 construct: CXCR1/2 are expressed on endothelial cells and participate in ELR^+CXCL-mediated angiogenesis; endogenous in cells; host or cells: HuVEC
T2 sequence (P25025 whole entry): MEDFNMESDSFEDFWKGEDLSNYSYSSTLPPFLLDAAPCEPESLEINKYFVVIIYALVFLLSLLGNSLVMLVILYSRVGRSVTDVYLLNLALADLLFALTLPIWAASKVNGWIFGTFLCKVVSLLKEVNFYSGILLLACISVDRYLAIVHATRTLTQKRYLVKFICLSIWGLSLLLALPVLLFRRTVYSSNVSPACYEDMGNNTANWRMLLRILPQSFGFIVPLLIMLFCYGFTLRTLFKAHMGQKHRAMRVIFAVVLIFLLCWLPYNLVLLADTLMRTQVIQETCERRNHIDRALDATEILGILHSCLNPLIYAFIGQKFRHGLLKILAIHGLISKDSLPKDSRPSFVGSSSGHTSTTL
Method: CXCR2 measurement: After stimulation, cells were washed with PBS and stained with the CXCR2-PE antibody (Miltenyi) for 30 min at room temperature. Fluorescence was measured using the FL2 (PE) channels of a fluorescence-activated cell sorter apparatus (Calibur cytometer).

Molm14 = test: XTT cell viability assay, Molm14 AML cells; type: cell-based, human; settings: Homo sapiens, MOLM-14, 48 h, SD 10%, mean of three experiments
Method in brief: as §1

CAL33 [4] = test: XTT cell viability assay, CAL33 HNSCC cells; type: cell-based, human; settings: for pIC50: Homo sapiens, CAL-33
Method in brief: as §1

[5] = Hematological, renal and hepatic toxicity; type: in vivo
MDA-MD-231 = test: XTT cell viability assay, breast cancer cells; type: cell-based, human; settings: Homo sapiens, 48 h, SD 10%, mean of three experiments
Method in brief: as §1

[6] = CAL33 xenograft, 100 mg/kg gavage
[7] = C29 100mg/kg oral gavage, three weeks, ns vs CT

Work on `O=C(Nc1cccc(Cl)c1)Nc1nc2ccc([N+](=O)[O-])cc2s1` [C29] yielded a pIC50 (Molm13) of 5.15, a pIC50 (RCC4) of 5.30 and a pIC50 (OCI-AML2) of 5.30. The “CXCR1 levels at the plasma membrane” value (CXCR1) was “increased”, the “basal and CXCL5-dependent ERK/MAP Kinase signaling (p-ERK)” value [1] was “inhibition” and the half-life ([2]; CD-1, mouse, po, 50 mg/kg, formulated at 7.6 mg/mL, read-out: half-life (t ½)) was 3.17 h. For the same molecule, the AUC ([2]; mouse) was ~1420 ng·h/mL, the Cmax ([2]; mouse) was 900 ng/mL and 2.6 µM and the Tmax ([2]; mouse) was 0.5 h. For the same molecule, the AUC(0-t) ([2]; mouse, read-out: AUC last PO (converted)) was 1420 ng·h/mL, the “mRNA level of murine CD31, experimental HNSCC” value (CAL33 [3]; CAL33 xenograft) was “decreased” and the “decrease in the tumor weight, HNSCC” value (CAL33 [3]; [6]) was 65%. For the same molecule, the “proliferation marker Ki-67, experimental HNSCC” value (CAL33 [3]; [6]) was “decreased”, the “weight loss of the animals, HNSCC model” value (CAL33 [3]; [6]) was “did not observe any weight loss” and the “decrease of the tumor volume at the end of the experiment, HNSCC” value (CAL33 [3]; CAL33 xenograft, 100 mg/kg gavage five times a week for two weeks) was “more than 65%”. For the same molecule, the “PI3K/AKT and ERK pathways in tumor lysates, experimental HNSCC” value (CAL33 [3]; immunoblotting, CAL33 xenograft) was “both pathways”, the “efficacy on experimental HNSCC compared with danirixin and cisplatin” value (CAL33 [3]; oral gavage 100 mg/kg five times a week) was “more efficient than danirixin, at the same dose, or than the reference treatment with cisplatin” and the “mRNA levels of ERL+CXCL cytokines, experimental HNSCC” value (CAL33 [3]; qPCR, CAL33 xenograft) was “Only CXCL5 was decreased”. The “efficacy on tumor growth, 786-O xenograft” value (786-O cells) was “as efficient as a dose of 50 mg/kg administered by oral gavage”, the pIC50 (CAL27; CXCR1+/CXCR2+, read-out: IC50 CAL27) was 5.60 and the pIC50 (CAL27; XTT assay, 48 h, SD 10%, mean of three experiments, read-out: IC50 27 (HNSCC)) was 5.60. The “Selectivity index CAL27” value (CAL27; SI = IC50 in normal cells (15S)/IC50 in CAL27) was 5, the “effect on CAL27 HNSCC cell viability compared with cisplatin” value (CAL27; XTT, 1 to 10 µM 48 h, 2.5 µM 24 to 96 h) was “greater than that of cisplatin” and the “CXCR2 levels at the plasma membrane” value (CXCR2) was “increased”. It also gave a pIC50 (Molm14) of 5.40, a pIC50 (CAL33 [4]; CXCR1+/CXCR2+, read-out: IC50 CAL33) of 5.40 and a pIC50 (CAL33 [4]; XTT assay, 48 h, SD 10%, mean of three experiments, read-out: IC50 33 (HNSCC)) of 5.40. For the same molecule, the “Selectivity index CAL33” value (CAL33 [4]; SI = IC50 in normal cells (15S)/IC50 in CAL33) was 3.13, the “hematological, renal or hepatic toxicity” value ([5]; 100mg/kg by oral gavage five times a week for three weeks) was “did not induce hematological, renal or hepatic toxicity” and the Basophils [5, 7] was 0.07089 ± 0.02 k/µl. The Eosinophils [5, 7] was 0.1760 ± 0.04 k/µl, the Hematocrit [5, 7] was 26.22 ± 2.45% and the Hemoglobin [5, 7] was 14.67 ± 1.22 g/dL. For the same molecule, the Leucocytes [5, 7] was 4.239 ± 0.60 k/µl, the Lymphocytes [5, 7] was 2.943 ± 0.38 k/µl and the “Mean Corpuscular Volume” value [5, 7] was 112.0 ± 1.054 fL. The Mean corpuscular hemoglobin [5, 7] was 31.46 ± 0.79 pg, the Mean platelet volume [5, 7] was 12.81 ± 0.08 fL and the Monocytes [5, 7] was 0.2664 ± 0.04 k/µl. The Neutrophils [5, 7] was 0.6760 ± 0.11 k/µl, the Platelets [5, 7] was 375.7 ± 77.93 k/µl and the Red blood cells [5, 7] was 10.33 ± 0.98 M/µl. The pIC50 (MDA-MD-231) was 5.60.
